Source: PMC4571170 (ACS Central Science, 2015)

T1: RNase A (Bos taurus, UniProt P61823)
T1 sequence (P61823 27-150): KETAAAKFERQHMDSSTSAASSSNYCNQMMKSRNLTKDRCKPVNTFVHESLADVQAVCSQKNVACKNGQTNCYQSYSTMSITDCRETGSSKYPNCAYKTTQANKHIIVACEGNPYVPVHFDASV


Columns and labels:
RNase A = target: T1, RNase A; test: Glycan array screening for RNase A ligands; assay type: binding, cow; conditions: printed glycan array, Figure 1
human leukemia cells = conditions: read-out: IC50 (cytotoxicity), ref [6],[15]; cited from earlier work

Molecule	binding of RNase A to glycan in the array (in words) (RNase A)	IC50 (human leukemia cells)
CC(=O)NC1C(OC2C(O)C(CO)OC(OC3C(CO)OC(OC4C(CO)OC(O)C(O)C4O)C(O)C3O)C2O)OC(CO)C(O)C1OC1OC(CO)C(O)C(O)C1O (stereo not shown) [glycan 127, Galβ1–3GalNAcβ1–3Galα1–4Galβ1–4Glc]	little affinity	–
GalNAcβ1–3Galα1–4Galβ1–4GlcNAc [glycan 90]	did bind	–
DRRRD RNase 1: RI-evasive cytotoxic variant of RNase 1 (R39D/N67R/N88R/G89R/R91D) (protein, UniProt P07998 29-156, looked up, variant R39D N67R N88R G89R R91D) Ribonuclease pancreatic: KESRAKKFQRQHMDSDSSPSSSSTYCNQMMRRRNMTQGDCKPVNTFVHEPLVDVQNVCFQEKVTCKRGQGNCYKSNSSMHITDCRLTRRSDYPNCAYRTSPKERHIIVACEGSPYVPVHFDASVEDST	–	10.8 µM
RNase A (G88R): RI-evasive cytotoxic G88R variant of RNase A (protein, UniProt P61823 27-150, looked up, variant G88R) Ribonuclease pancreatic: KETAAAKFERQHMDSSTSAASSSNYCNQMMKSRNLTKDRCKPVNTFVHESLADVQAVCSQKNVACKNGQTNCYQSYSTMSITDCRETRSSKYPNCAYKTTQANKHIIVACEGNPYVPVHFDASV	–	6.2 µM
